The source of these data is US20040258652A1, “Hair treatment compositions and hair after-treatment compositions for protection against damage by chemical treatment and for the repair of already damaged hair comprising as active substances alkylguanidine compounds” (GOLDSCHMIDT AG, priority 2003, published 2004).

The structures appear in SMILES notation.

Test [1] is described as follows: Determination of the protein loss of predamaged hair (extraction with Na lauryl ether sulfate, UV absorption at 295 nm). More on the design: species or system human. The following applies: hair rinse of Tab. 3 with 2.0% active, pH 5.0, 30 min; predamaged hair (permanently waved and bleached); extraction with 8% Na lauryl ether sulfate 3 h at room temperature; at least three measurements. The text has this: The more severely damaged the hair, e.g., by permanent waving or bleaching, the higher the concentration of water-soluble protein fragments/peptides in the hair which can be extracted with water or surfactants. Extraction with surfactants simulates the washing of the hair by means of a shampoo. Also during hair washing, damaged hair loses more peptides than healthy hair.
For illustration, the hair was predamaged. For this, the hair was permanently waved and bleached 1×each
The predamaged strands of hair (weight: about 4 g) were immersed in the test formulation (time of action: 30 min) and then rinsed off for 1 min under running tap water (T=35° C.).
They were then left to dry in the air for 12 hours.
Determination of the Protein Loss:
About 0.5 g of hair+about 15 ml of Na lauryl ether sulfate (8%) were shaken at room temperature for 3 h. The solution was subsequently decanted and centrifuged. The protein concentration of the solution was then determined photometrically by measurement of the UV absorption at 295 nm. A keratin hydrolysate was used as a standard (M=1000, Promois WK-H, Seiwa Kasei).

A short description of test [2]: Force for the extension of individual damaged hairs by 15% before and after treatment (DiaStron Mtt670). Further details: species or system human. As to conditions: hair rinse A with 2.0% by weight of compound, pH 5, 30 min immersion, permanently waved and bleached Euro hair, measured wet, difference of 15% extension forces after and before treatment, at least 30 measurements. The protocol: Euro hair (hair from Europeans), left natural.
Preliminary Damage to the Hair
1×each permanent waving and bleaching using commercially available products.
Treatment of the damaged hair:
The damaged hair was treated with the exemplary formulations.
For each test formulation, 30 damp individual hairs were measured. The experimental procedure was as follows:
1. The predamaged hairs were wetted with water and using the fully automatic device Mtt670 from DiaStron the force was measured which was necessary for 15% extension.
2. For recovery, the hairs were immersed for at least 2 h in a water bath.
3. The hairs were then immersed for 30 min in the test formulation and then each hair was rinsed for about 7 s under running water.
4. The hairs were left overnight (=12 h) to dry in air.
5. The force which was necessary in order to extend the treated hair by 15% was again measured as described above, after wetting with water.
6. The difference between the 15% extension forces before and after treatment with the test formulation was calculated and used as a measure of the improvement in the mechanical resistivity of the damaged hairs by the alkylguanidine compounds.

`CC(=O)O.CCCCCCCCNC(=N)N` [HSP A where R^2 = C8, octylguanidinium acetate]: the Protein loss in test [1] was 26.8 mg/g of hair. For the same compound, in test [2] (Table 2A), the “Force 15%after force 15%before” value is reported as 3.51 mN.
Turning to `CC(O)C(=O)O.CCCCCCCCNC(=N)N` [HSP A where R^1 = H; R^2 = C8; lactate, octylguanidinium lactate], the “Force 15%after force 15%before” value in test [2] (Table 2B) came to 3.65 mN.
In the case of `CC(=O)O.CCCCN(CCCC)C(=N)N` [HSP A where R^1 = C4; R^2 = C4; acetate, N,N-dibutylguanidinium acetate], the “Force 15%after force 15%before” value in test [2] (Table 2B) stood at 2.16 mN.
The same measure, in the same setting: as for `CC(=O)O.CC(=O)O.N=C(N)NCCCCCCNC(=N)N` [hexane-1,6-diguanidinium acetate], the figure is 3.45 mN.
